Test results as given in ChEMBL document CHEMBL1201861, “Genomics of Drug Sensitity in Cancer screening data, Wellcome Trust Sanger Institute”.

How the values were obtained:
Experiment in all cases: cells
ES3 = type: functional, cell-based, Homo sapiens; conditions: Homo sapiens, ES3;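 further: growth inhibition of ES3 cells, read out with a cell viability assay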
Description: SANGER: Inhibition of human ES3 cell growth in a cell viability assay.

EW-13 = type: functional, cell-based; conditions: Homo sapiens;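 further: growth inhibition of EW-13 cells, read out with a cell viability assay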
Description: SANGER: Inhibition of human EW-13 cell growth in a cell viability assay.

GB-1 = type: functional, cell-based, Homo sapiens; conditions: Homo sapiens, GB-1;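 further: growth of GB-1 cells judged by a viability assay, IC50 marks the concentration inhibiting growth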
Description: SANGER: Inhibition of human GB-1 cell growth in a cell viability assay.

GCIY = type: functional, cell-based, Homo sapiens; conditions: Homo sapiens, GCIY;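 further: growth inhibition of the human GCIY cell line, read out by a cell viability assay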
Description: SANGER: Inhibition of human GCIY cell growth in a cell viability assay.

GOTO = type: functional, cell-based, Homo sapiens; conditions: Homo sapiens, GOTO;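 further: growth inhibition of GOTO cells, read out by a cell viability assay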
Description: SANGER: Inhibition of human GOTO cell growth in a cell viability assay.

GR-ST = type: functional, cell-based; conditions: Homo sapiens
Description: SANGER: Inhibition of human GR-ST cell growth in a cell viability assay.

GT3TKB = type: functional, cell-based, Homo sapiens; conditions: Homo sapiens, GT3TKB;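 further: growth inhibition of the cell line, read out with a cell viability assay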
Description: SANGER: Inhibition of human GT3TKB cell growth in a cell viability assay.

HC-1 = type: functional, cell-based; conditions: Homo sapiens;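 further: growth inhibition of HC-1 cells measured by a cell viability assay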
Description: SANGER: Inhibition of human HC-1 cell growth in a cell viability assay.

HCC1395 = type: functional, cell-based, Homo sapiens; conditions: Homo sapiens, HCC1395;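 further: growth inhibition of HCC1395 cells, read out by a cell viability assay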
Description: SANGER: Inhibition of human HCC1395 cell growth in a cell viability assay.

HCC1419 = type: functional, cell-based, Homo sapiens; conditions: Homo sapiens, HCC1419;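 further: growth inhibition of human HCC1419 cells, read out as cell viability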
Description: SANGER: Inhibition of human HCC1419 cell growth in a cell viability assay.

HCC1937 = type: functional, cell-based, Homo sapiens; conditions: Homo sapiens, HCC1937;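 further: growth inhibition measured with a cell viability read-out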
Description: SANGER: Inhibition of human HCC1937 cell growth in a cell viability assay.

HPAF-II = type: functional, cell-based, Homo sapiens; conditions: Homo sapiens, HPAF-II;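 further: growth inhibition of HPAF-II cells, read out with a cell viability assay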
Description: SANGER: Inhibition of human HPAF-II cell growth in a cell viability assay.

HuCCT-1 = type: functional, cell-based, Homo sapiens, HuCCT1; conditions: Homo sapiens, HuCCT-1;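 further: growth inhibition of HuCCT-1 cells, read out by a cell viability assay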
Description: SANGER: Inhibition of human HuCCT1 cell growth in a cell viability assay.

HuP-T4 = type: functional, cell-based, Homo sapiens; conditions: Homo sapiens, HuP-T4;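 further: cell viability assay measuring how much HuP-T4 cell growth is inhibited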
Description: SANGER: Inhibition of human HuP-T4 cell growth in a cell viability assay.

KP-N-YS = type: functional, cell-based; conditions: Homo sapiens;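 further: cell viability assay measuring inhibition of cell line growth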
Description: SANGER: Inhibition of human KP-N-YS cell growth in a cell viability assay.

KYSE-140 = type: functional, cell-based, Homo sapiens; conditions: Homo sapiens, KYSE-140;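 further: cell viability assay measuring growth inhibition in human KYSE-140 cells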
Description: SANGER: Inhibition of human KYSE-140 cell growth in a cell viability assay.

KYSE-270 = type: functional, cell-based, Homo sapiens; conditions: Homo sapiens, KYSE-270;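 further: cell growth inhibition measured with a viability assay in the human KYSE-270 line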
Description: SANGER: Inhibition of human KYSE-270 cell growth in a cell viability assay.

MDA-MB-231 = type: functional, cell-based, Homo sapiens; conditions: Homo sapiens, MDA-MB-231
Description: SANGER: Inhibition of human MDA-MB-231 cell growth in a cell viability assay.

MHH-NB-11 = type: functional, cell-based, Homo sapiens; conditions: Homo sapiens, MHH-NB-11;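 further: growth inhibition of human MHH-NB-11 cells, read out by a cell viability assay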
Description: SANGER: Inhibition of human MHH-NB-11 cell growth in a cell viability assay.

MKN-1 = type: functional, cell-based, Homo sapiens; conditions: Homo sapiens, MKN-1;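 further: growth inhibition of human MKN1 cells, read out by a cell viability measurement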
Description: SANGER: Inhibition of human MKN1 cell growth in a cell viability assay.

MMAC-SF = type: functional, cell-based, Homo sapiens; conditions: Homo sapiens, MMAC-SF;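 further: growth inhibition of human MMAC-SF cells, read out with a cell viability assay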
Description: SANGER: Inhibition of human MMAC-SF cell growth in a cell viability assay.

MS-1 = type: functional, cell-based; conditions: Homo sapiens;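 further: growth inhibition of MS-1 cells, read out by cell viability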
Description: SANGER: Inhibition of human MS-1 cell growth in a cell viability assay.

NCI-H1092 = type: functional, cell-based; conditions: Homo sapiens;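 further: cell growth inhibition measured with a cell viability assay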
Description: SANGER: Inhibition of human NCI-H1092 cell growth in a cell viability assay.

NCI-H1299 = type: functional, cell-based, Homo sapiens; conditions: Homo sapiens, NCI-H1299;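 further: growth inhibition of human NCI-H1299 cells, read out by a cell viability assay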
Description: SANGER: Inhibition of human NCI-H1299 cell growth in a cell viability assay.

NCI-H2452 = type: functional, cell-based, Homo sapiens; conditions: Homo sapiens, NCI-H2452;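 further: growth inhibition of NCI-H2452 cells, read out with a cell viability assay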
Description: SANGER: Inhibition of human NCI-H2452 cell growth in a cell viability assay.

NCI-H661 = type: functional, cell-based, Homo sapiens; conditions: Homo sapiens, NCI-H661;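 further: cell viability assay read-out, IC50 being the concentration that inhibits growth of the cells by half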
Description: SANGER: Inhibition of human NCI-H661 cell growth in a cell viability assay.

NCI-N87 = type: functional, cell-based, Homo sapiens; conditions: Homo sapiens, NCI-N87;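 further: growth inhibition of human NCI-N87 cells, read out with a cell viability assay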
Description: SANGER: Inhibition of human NCI-N87 cell growth in a cell viability assay.

OAW-28 = type: functional, cell-based, Homo sapiens; conditions: Homo sapiens, OAW-28;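 further: growth inhibition of OAW-28 cells, read out with a cell viability assay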
Description: SANGER: Inhibition of human OAW-28 cell growth in a cell viability assay.

OVCAR-5 = type: functional, cell-based, Homo sapiens; conditions: Homo sapiens, OVCAR-5;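 further: growth inhibition of human OVCAR-5 cells, read out with a cell viability assay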
Description: SANGER: Inhibition of human OVCAR-5 cell growth in a cell viability assay.

P12-Ichikawa = type: functional, cell-based; conditions: Homo sapiens
PFSK-1 = type: functional, cell-based, Homo sapiens; conditions: Homo sapiens, PFSK-1;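 further: cell viability assay measuring how strongly compounds suppress growth of human PFSK-1 cells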
Description: SANGER: Inhibition of human PFSK-1 cell growth in a cell viability assay.

RO82-W-1 = type: functional, cell-based, Homo sapiens; conditions: Homo sapiens, RO82-W-1;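 further: growth inhibition of human RO82-W-1 cells, measured with a cell viability assay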
Description: SANGER: Inhibition of human RO82-W-1 cell growth in a cell viability assay.

RS4-11 = type: functional, cell-based; conditions: Homo sapiens;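 further: growth inhibition of RS4-11 cells, read out by a cell viability assay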
Description: SANGER: Inhibition of human RS4-11 cell growth in a cell viability assay.

SBC-1 = type: functional, cell-based; conditions: Homo sapiens;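 further: cell viability assay measuring growth inhibition of the SBC-1 cell line, IC50 being the concentration that halves growth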
Description: SANGER: Inhibition of human SBC-1 cell growth in a cell viability assay.

SBC-5 = type: functional, cell-based, Homo sapiens; conditions: Homo sapiens, SBC-5;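 further: cell viability assay read-out, IC50 is the concentration that inhibits growth of the cells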
Description: SANGER: Inhibition of human SBC-5 cell growth in a cell viability assay.

SCC-15 = type: functional, cell-based, Homo sapiens; conditions: Homo sapiens, SCC-15;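 further: growth inhibition of SCC-15 cells, read out with a cell viability assay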
Description: SANGER: Inhibition of human SCC-15 cell growth in a cell viability assay.

SCC-4 = type: functional, cell-based, Homo sapiens; conditions: Homo sapiens, SCC-4;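 further: growth inhibition of human SCC-4 cells, read out as cell viability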
Description: SANGER: Inhibition of human SCC-4 cell growth in a cell viability assay.

SK-N-DZ = type: functional, cell-based, Homo sapiens; conditions: Homo sapiens, SK-N-DZ;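 further: growth inhibition of the cancer cell line, read out through a viability assay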
Description: SANGER: Inhibition of human SK-N-DZ cell growth in a cell viability assay.

SKG-IIIa = type: functional, cell-based, Homo sapiens; conditions: Homo sapiens, SKG-IIIa;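 further: cell growth inhibition, read out with a cell viability assay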
Description: SANGER: Inhibition of human SKG-IIIa cell growth in a cell viability assay.

SW982 = type: functional, cell-based; conditions: Homo sapiens;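 further: growth inhibition of SW982 cells, read out with a cell viability assay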
Description: SANGER: Inhibition of human SW982 cell growth in a cell viability assay.

T84 = type: functional, cell-based, Homo sapiens; conditions: Homo sapiens, T84;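 further: growth inhibition measured with a cell viability readout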
Description: SANGER: Inhibition of human T84 cell growth in a cell viability assay.

697 = type: functional, cell-based; conditions: Homo sapiens
Description: SANGER: Inhibition of human 697 cell growth in a cell viability assay.

769-P = type: functional, cell-based, Homo sapiens; conditions: Homo sapiens, 769-P
Description: SANGER: Inhibition of human 769-P cell growth in a cell viability assay.

A2058 = type: functional, cell-based; conditions: Homo sapiens;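 further: reduction of A2058 cell growth, read out with a viability assay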
Description: SANGER: Inhibition of human A2058 cell growth in a cell viability assay.

CAL-120 = type: functional, cell-based, Homo sapiens; conditions: Homo sapiens, CAL-120;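 further: cell growth inhibition, read out as cell viability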
Description: SANGER: Inhibition of human CAL-120 cell growth in a cell viability assay.

CAL-39 = type: functional, cell-based, Homo sapiens; conditions: Homo sapiens, CAL-39;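 further: cell viability assay measuring growth inhibition of CAL-39 cells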
Description: SANGER: Inhibition of human CAL-39 cell growth in a cell viability assay.

TE-6 = type: functional, cell-based, Homo sapiens; conditions: Homo sapiens, TE-6;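 further: growth inhibition of TE-6 cells, read out with a cell viability assay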
Description: SANGER: Inhibition of human TE-6 cell growth in a cell viability assay.

TE-8 = type: functional, cell-based, Homo sapiens; conditions: Homo sapiens, TE-8;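 further: growth inhibition of TE-8 cells, measured with a cell viability readout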
Description: SANGER: Inhibition of human TE-8 cell growth in a cell viability assay.

U-266 = type: functional, cell-based; conditions: Homo sapiens
Description: SANGER: Inhibition of human U-266 cell growth in a cell viability assay.

CAS-1 = type: functional, cell-based, Homo sapiens; conditions: Homo sapiens, CAS-1;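 further: growth inhibition of CAS-1 cells, measured with a cell viability assay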
Description: SANGER: Inhibition of human CAS-1 cell growth in a cell viability assay.

CHL-1 = type: functional, cell-based, Homo sapiens; conditions: Homo sapiens, CHL-1;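 further: cell growth inhibition, read out with a cell viability assay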
Description: SANGER: Inhibition of human CHL-1 cell growth in a cell viability assay.

COLO-680N = type: functional, cell-based, Homo sapiens; conditions: Homo sapiens, COLO-680N;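 further: cell viability assay used to measure inhibition of COLO-680N cell growth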
Description: SANGER: Inhibition of human COLO-680N cell growth in a cell viability assay.

COC(=O)CNC(=O)C(=O)OC
IC50 (ES3): 701 µM
IC50 (EW-13): 39 µM
IC50 (GB-1): 94 µM
IC50 (GCIY): 109 µM
IC50 (GOTO): 1150 µM
IC50 (GR-ST): 213 µM
IC50 (GT3TKB): 242 µM
IC50 (HC-1): 569 µM
IC50 (HCC1395): 1540 µM
IC50 (HCC1419): > 4000 µM
IC50 (HCC1937): 893 µM
IC50 (HPAF-II): 998 µM
IC50 (HuCCT-1): 211 µM
IC50 (HuP-T4): 128 µM
IC50 (KP-N-YS): 1680 µM
IC50 (KYSE-140): 1610 µM
IC50 (KYSE-270): 275 µM
IC50 (MDA-MB-231): 368 µM
IC50 (MHH-NB-11): > 4000 µM
IC50 (MKN-1): 2190 µM
IC50 (MMAC-SF): 881 µM
IC50 (MS-1): 878 µM
IC50 (NCI-H1092): 1200 µM
IC50 (NCI-H1299): 2150 µM
IC50 (NCI-H2452): 966 µM
IC50 (NCI-H661): 2280 µM
IC50 (NCI-N87): 3950 µM
IC50 (OAW-28): 2110 µM
IC50 (OVCAR-5): 458 µM
IC50 (P12-Ichikawa): 62 µM
IC50 (PFSK-1): 274 µM
IC50 (RO82-W-1): > 4000 µM
IC50 (RS4-11): 34.2 µM
IC50 (SBC-1): 1410 µM
IC50 (SBC-5): 1390 µM
IC50 (SCC-15): 1030 µM
IC50 (SCC-4): 877 µM
IC50 (SK-N-DZ): 3090 µM
IC50 (SKG-IIIa): 308 µM
IC50 (SW982): 33.7 µM
IC50 (T84): > 4000 µM
IC50 697: 229 µM
IC50 (769-P): > 4000 µM
IC50 (A2058): 166 µM
IC50 (CAL-120): 806 µM
IC50 (CAL-39): 19.3 µM
IC50 (TE-6): 1360 µM
IC50 (TE-8): 2640 µM
IC50 (U-266): > 4000 µM
IC50 (CAS-1): 264 µM
IC50 (CHL-1): 917 µM
IC50 (COLO-680N): 242 µM
